Reference: the NIST ThermoML archive (doi:10.1021/je060271a)

Settings: 303.15 K, Liquid, Vibrating tube method

CCCCC(=O)OCC(COC(=O)CCCC)(COC(=O)CCCC)COC(=O)CCCC [pentaerythritol tetrapentanoate]
Settings | mass density [kg/m3]
1387.7 kPa | 1011.7
1391.5 kPa | 1011.7
1395 kPa | 1011.6
1398.3 kPa | 1011.8
1401.8 kPa | 1011.7
1405.8 kPa | 1011.7
1409.2 kPa | 1011.8
1413.1 kPa | 1011.7
1416.4 kPa | 1011.8
1419.7 kPa | 1011.8
1423.1 kPa | 1011.7
1427 kPa | 1011.8
1430.8 kPa | 1011.8
1434.2 kPa | 1011.9
1437.9 kPa | 1011.6
1441.9 kPa | 1011.8
1445.5 kPa | 1011.7
1449 kPa | 1011.8
1453.3 kPa | 1011.8
1456.6 kPa | 1011.8
1460.5 kPa | 1011.7
1464.6 kPa | 1011.9
1467.9 kPa | 1011.8
1471.8 kPa | 1011.8
1475.9 kPa | 1011.8
1479.9 kPa | 1011.8
1483.5 kPa | 1011.8
1487 kPa | 1011.7
1491.7 kPa | 1011.8
1495.5 kPa | 1011.9
1499.2 kPa | 1011.8
1503.7 kPa | 1011.9
1507.5 kPa | 1011.7
1511.2 kPa | 1011.8
1515 kPa | 1011.7
1519.8 kPa | 1011.7
1523.7 kPa | 1011.8
1527.3 kPa | 1011.8
1532.2 kPa | 1011.8
1536 kPa | 1011.7
1540 kPa | 1011.8
1544.5 kPa | 1011.8
1548.8 kPa | 1011.7
1552.7 kPa | 1011.8
1556.3 kPa | 1011.9
1561.3 kPa | 1011.9
1565.3 kPa | 1011.8
1569.5 kPa | 1011.8
1573.5 kPa | 1011.9
1577.5 kPa | 1011.9
1581.8 kPa | 1011.9
1585.8 kPa | 1011.8
1590.8 kPa | 1011.9
1595 kPa | 1011.8
1599 kPa | 1011.9
1604.2 kPa | 1011.9
1608.2 kPa | 1011.9
1612.5 kPa | 1011.9
1617.8 kPa | 1012
1621.9 kPa | 1011.9
1626.6 kPa | 1011.9
1630.8 kPa | 1011.8
1635 kPa | 1011.9
1640 kPa | 1012
1644.2 kPa | 1012
1648.7 kPa | 1011.8
1653.9 kPa | 1012.1
1658.9 kPa | 1011.8
1663.4 kPa | 1011.9
1668.6 kPa | 1011.9
1673.2 kPa | 1011.8
1677.7 kPa | 1011.8
1683.2 kPa | 1011.9
1687.7 kPa | 1012.1
1692.6 kPa | 1012
1697.3 kPa | 1011.9
1703 kPa | 1011.9
1707.7 kPa | 1012
1712 kPa | 1011.9
1717.8 kPa | 1011.9
1722.5 kPa | 1011.9
1727.3 kPa | 1012
1732.9 kPa | 1011.9
1737.7 kPa | 1012.1
1742.9 kPa | 1012.1
1747.8 kPa | 1012
1753.7 kPa | 1011.9
1758.4 kPa | 1012
1763.8 kPa | 1012
1768.6 kPa | 1012
1774.7 kPa | 1011.9
1779.9 kPa | 1012.1
1784.9 kPa | 1012
1791 kPa | 1011.9
1796 kPa | 1012
1800.9 kPa | 1012.1
1807.3 kPa | 1012
1812.5 kPa | 1012
1817.6 kPa | 1012.1
1824 kPa | 1011.9
1829.5 kPa | 1012.1
1834.9 kPa | 1012
1840.1 kPa | 1012
1846.6 kPa | 1012
1852.1 kPa | 1012
1857.5 kPa | 1012
1862.9 kPa | 1012
1869.5 kPa | 1012.1
1874.8 kPa | 1012.1
1881.8 kPa | 1012
1887 kPa | 1012.1
1892.9 kPa | 1012
1898.6 kPa | 1012.1
1904.4 kPa | 1012
1911.3 kPa | 1012.1
1916.8 kPa | 1012.1
1923.1 kPa | 1012.1
1930 kPa | 1012
1935.6 kPa | 1012.1
1941.3 kPa | 1011.9
1947.2 kPa | 1012.1
1954.3 kPa | 1012
1960.6 kPa | 1012
1966.7 kPa | 1012.1
1972.9 kPa | 1012.1
1980.4 kPa | 1012.1
1986.3 kPa | 1012.1
1992.3 kPa | 1012.1
1999.8 kPa | 1012.1
2006.4 kPa | 1012.1
2012.5 kPa | 1012.1
2018.9 kPa | 1012.1
2026.4 kPa | 1012.1
2033.5 kPa | 1012.1
2039.7 kPa | 1012.1
2046.1 kPa | 1012.1
2053.9 kPa | 1012.3
2060.5 kPa | 1012.1
2068.3 kPa | 1012.2
2074.9 kPa | 1012.1
2081.9 kPa | 1012.2
2090 kPa | 1012.3
2096.8 kPa | 1012.1
2103.5 kPa | 1012.2
2109.8 kPa | 1012.1
2118.5 kPa | 1012.2
2125.2 kPa | 1012.1
2132.5 kPa | 1012.3
2140.9 kPa | 1012.4
2147.8 kPa | 1012.2
2155.4 kPa | 1012.3
2162.7 kPa | 1012.2
2170 kPa | 1012.3
2178.5 kPa | 1012.3
2185.3 kPa | 1012.3
2192.6 kPa | 1012.2
2201.3 kPa | 1012.3
2208.7 kPa | 1012.3
2216.2 kPa | 1012.1
2223.6 kPa | 1012.2
